Consider 2 compounds from EP1140026B1, “BIODEGRADBLE POLYMER ENCAPSULATED SEROTONIN RECEPTOR ANTAGONIST AND METHOD FOR PREPARING THE SAME” (AVENTIS PHARMACEUTICALS INC., priority 1998, dated 2000).

Assay [1] relates to myocardial tissue. As to conditions: cited from earlier work.
Assay [2] relates to prepulse inhibition and latent inhibition. As to conditions: cited from earlier work.
For assay [3], the system named is MDMA-induced dopamine release in the striatum. As to conditions: in vivo; cited from earlier work.
For assay [4], the system named is A10 vs. A9 neuronal activity. As to conditions: after chronic administration; cited from earlier work.
Assay [5] relates to amphetamine-stimulated locomotion. As to conditions: in vivo; cited from earlier work.
For assay [6], the system named is Male Wistar rats. The experiment in a line: Chronic Mild Stress Model of Depression (CMS), consumption of 1% sucrose solution. The class given is in vivo. An excerpt: CMS uses mild stressors, such as food and water deprivation, cage tilts, changes of cage mates, etc. Over a period of weeks of exposure to the mild stressors, the animals gradually reduce their consumption of a highly preferred sucrose solution which persists (in untreated animals) for several weeks following the cessation of stress. This decreased sensitivity to reward (the sucrose solution) reflects anhedonia, a symptom of a Major Depressive Episode (see for example, Behavioral Pharmacol. 5: Suppl.1, p. 86 (1994) where lithium, carbamazepine and ketoconazole were evaluated in CMS; Psychopharmacology 93:358-364 (1987) where a tricyclic antidepressant was evaluated in CMS; Behavioral Pharmacology: 5:344-350 (1994) where a catechol-O-methyl transferase inhibitor was evaluated in CMS).
Male Wistar rats were brought into the laboratory two months before the start of the experiment at which time they weighed approximately 300 grams. Except as described below, the animals were singly housed, with food and water freely available, and maintained on a 12 hour light/dark cycle (lights on at 8AM) at a temperature of about 22 °C.
The animals were first trained to consume a 1% sucrose solution; training consisted of eight 1 hour baseline tests in which sucrose was presented, in the home cage, following 14 hours food and water deprivation;- intake was measured by weighing pre-weighed bottles containing the sucrose solution at the end of the test. Subsequently, sucrose consumption was monitored, under similar conditions, at weekly intervals throughout the whole experiment.
On the basis of their sucrose intakes in the final baseline test, the animals were divided into two matched groups. One group of animals was subjected to a chronic mild stress procedure for a period of 9 consecutive weeks. Each week of stress regime consisted of: two periods of food or water deprivation (12 and 14 hour), two periods of 45 degree cage tilt (12 and 14 hour+), two periods of intermittent overnight illumination (lights on and off every 2 hours), two 14 hour periods of soiled cage (200 ml water in sawdust bedding), two 14 hour periods of paired housing, two 14 hour periods of low intensity stroboscopic illumination (150 flashes/min). Stressors were applied continuously throughout the day and night, and scheduled randomly. Control animals were housed in a separate room and had no contract with the stressed animals. They were deprived of food and water for the 14 hours preceding each sucrose test, but otherwise food and water were freely available in the home cage. On the basis of their sucrose intake scores following 3 weeks of stress, both stressed and control animals were each divided further into matched subgroups (n=8), and for subsequent five weeks they received daily administrations of vehicle (1ml/kg, intraperitoneally (ip)) imipramine (10mg/kg, ip) or MDL 100,907 (0.002, 0.02 and 0.2 mg/kg orally). All drug injections were in a volume of 1ml/kg body weight. Drugs were administered at 10AM and sucrose tests were carried out 24 hours following the last drug treatment. After five weeks, the treatments were terminated and after one week of withdrawal a final sucrose test was carried out. Stress was continued throughout the period of treatment and withdrawal.
Results were analyzed by multiple analysis of variance, followed by Fisher's LSD test for post hoc comparisons of means.

For assay [7], the system named is platelets. As to conditions: aggregation as the result of minor alterations in the endothelial lining of the vasculature; cited from earlier work.

Consider `COc1cccc(C(O)C2CCN(CCc3ccc(F)cc3)CC2)c1OC` (stereo not drawn) [MDL 100,907, (+)-α-(2,3-dimethoxyphenyl)-1-[2-(4-fluorophenyl)ethyl]-4-piperidinemethanol], for which the “anti-arrhythmic activity, classification system of Vaughan Williams” value in assay [1] is reported as “Class III anti-arrhythmic activity”. In addition, in assay [1], the “duration of the action potential of myocardial tissue” value is listed as “increases the duration of the action potential”. Besides, the “disrupted PPI (prepulse inhibition)” value in assay [2] (disruption produced by 5HT agonists in Wistar rats) is recorded as “restore disrupted PPI”. In addition, the “5-HT2 agonist-induced deficits in prepulse inhibition and latent inhibition” value in assay [2] (rat, in vivo) is listed as “reversal”. The “MDMA-induced dopamine release in the striatum” value in assay [3] is given as “reduction”. Moreover, the “A10 vs. A9 neuronal activity” value in assay [4] was “selective effects”. Besides, the amphetamine-stimulated locomotion result in assay [5] is recorded as “blockade”. Moreover, in assay [6] (0.002mg/kg orally daily, stressed animals), the “sucrose intake throughout the whole treatment period” value is “no significant effect”. Also, the “sucrose consumption after five weeks of treatment” value in assay [6] (0.002mg/kg orally daily, stressed animals, Week 5) was “did not differ from the intakes of the vehicle-treated stressed animals”. Also, the “treatment time after which sucrose intakes were significantly increased from initial scores (Week 0)” value in assay [6] (0.02 mg/kg orally daily, stressed animals) was “two”; in assay [6] (0.2 mg/kg orally daily, stressed animals) it was “three”. The “amount of sucrose solution drunk at the end of treatment period (Week 5)” value in assay [6] (0.02 mg/kg orally daily, stressed animals, Week 5) was “comparable to that of vehicle-treated controls and significantly higher than that of vehicle-treated stressed animals”; in assay [6] (0.2 mg/kg orally daily, stressed animals, Week 5), “comparable to that of vehicle-treated controls and significantly higher than that of vehicle-treated stressed animals”. Moreover, in assay [6] (0.002, 0.02 and 0.2 mg/kg, control and stressed animals, one week after withdrawal), the “sucrose intakes one week after withdrawal from the treatment” value was “not significantly changed”. For the same compound, the “sucrose intake in control animals” value in assay [6] (MDL 100,907 0.002, 0.02 and 0.2 mg/kg orally daily, five weeks) is reported as “no significant effect”. For the same compound, the “CMS-induced deficit in sucrose intake in stressed animals” value in assay [6] (MDL 100,907 0.002, 0.02 and 0.2 mg/kg orally daily, five weeks, stressed animals) is “gradually reversed the CMS-induced deficit in sucrose intake”. The “rate at which platelets aggregate” value in assay [7] is recorded as “decreases the rate at which platelets aggregate”.

Consider `CN(C)CCCN1c2ccccc2CCc2ccccc21` [Imipramine, reference compound], for which the “sucrose intake in control animals” value in assay [6] (imipramine 10mg/kg ip daily, five weeks) was “no significant effect”. Also, the “sucrose intake in stressed animals” value in assay [6] (imipramine 10mg/kg ip daily, five weeks, stressed animals) is given as “gradual increase of sucrose intake”. The “sucrose intake after five weeks of treatment, stressed animals versus controls” value in assay [6] (imipramine 10mg/kg ip daily, Week 5) was “no significant differences between drug-treated stressed animals and drug- and saline-treated controls”. In assay [6] (imipramine 10mg/kg ip daily, stressed animals), the “treatment time after which sucrose intake was significantly increased from Week 0 scores” value is on record as “four”. Also, the “increase of sucrose intake one week after withdrawal from the drug” value in assay [6] (imipramine 10mg/kg ip, stressed animals, one week after withdrawal) is “maintained at similar level”.
